Test results published in BindingDB's records for patent US12084442 (Novartis, 2024).

Molecular target: T1, G protein-activated inward rectifier potassium channel 1/4 (Homo sapiens, UniProt P48544+P48549)
T1 sequence (P48549 whole entry): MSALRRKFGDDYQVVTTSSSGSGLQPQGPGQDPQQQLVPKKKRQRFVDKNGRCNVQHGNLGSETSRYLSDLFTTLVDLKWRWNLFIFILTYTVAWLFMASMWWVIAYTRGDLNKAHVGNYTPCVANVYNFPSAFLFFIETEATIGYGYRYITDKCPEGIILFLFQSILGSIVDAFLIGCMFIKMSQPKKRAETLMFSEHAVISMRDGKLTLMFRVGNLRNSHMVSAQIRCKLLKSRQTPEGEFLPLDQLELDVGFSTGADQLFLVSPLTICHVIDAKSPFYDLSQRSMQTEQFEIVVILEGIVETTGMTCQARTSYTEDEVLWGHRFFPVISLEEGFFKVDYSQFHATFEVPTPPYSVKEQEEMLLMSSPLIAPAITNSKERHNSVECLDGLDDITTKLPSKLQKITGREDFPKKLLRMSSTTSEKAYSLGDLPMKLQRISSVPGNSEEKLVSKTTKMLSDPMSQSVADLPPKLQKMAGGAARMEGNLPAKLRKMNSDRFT
T1 sequence (P48544 whole entry): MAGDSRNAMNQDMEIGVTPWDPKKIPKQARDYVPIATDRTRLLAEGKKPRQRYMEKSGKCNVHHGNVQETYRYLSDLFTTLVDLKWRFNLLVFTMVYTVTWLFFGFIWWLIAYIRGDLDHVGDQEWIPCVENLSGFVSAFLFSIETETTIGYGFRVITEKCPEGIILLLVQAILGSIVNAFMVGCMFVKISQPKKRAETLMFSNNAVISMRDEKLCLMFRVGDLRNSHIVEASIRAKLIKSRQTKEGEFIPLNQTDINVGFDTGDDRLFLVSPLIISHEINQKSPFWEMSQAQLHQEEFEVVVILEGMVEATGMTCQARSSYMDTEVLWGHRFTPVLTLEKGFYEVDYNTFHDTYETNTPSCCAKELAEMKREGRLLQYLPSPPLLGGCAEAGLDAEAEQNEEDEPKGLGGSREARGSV
Assay: GIRK1/4 Activity Assay
Experimental: The GIRK1/4 activity of a compound according to the present invention was assessed by the following in vitro method.Buffers:a. External buffer: 10 mM NaCl, 50 mM Na Gluconate, 80 mM K Gluconate, 1.8 mM CaCl2, 1 mM MgCl2, 10 mM HEPES, 10 mM Glucose, pH 7.4; osmolarity 300-310 […].b. Internal buffer: 30 mM KCl, 100 mM K Gluconate, 1 mM MgCl2, 10 mM HEPES, 1 mM EGTA, 10 mM NaCl, pH 7.2; osmolarity […].Compounds:c. Prepare seven-fold compound dilution series (10 mM to 20 uM) in 100% DMSO, in 384-well polypropylene plates.d. Propafenone (Sigma Aldrich, catalog number P4670) was used as a positive control and DMSO for neutral controle. Resuspend 1 μl of compounds in DMSO into 66.7 μl external buffer in 384-well polypropylene plate and load into Plate 1 section of Molecular Devices Quattro Quattro Setup:f. Load 384-well Population Patch Plate (Molecular Devices #9000-0902) into Quattrog. Fill Quattro F-soak trough with 20% DMSO and 50% EtOHh. Fill Quattro buffer trough with external bufferi. Attach internal buffer flask to Quattro internal buffer tubingj. Attach PBS (Phosphate Buffered Saline, minus Ca++ and Mg++, pH7.4) bottle to F-head & E-head wash on QuattroAntibiotic:k. […] Measured magnitude of inward potassium current at time point between 1200-1220 ms from start of Pulse 1 (i.e., during the voltage ramp phase).t. […]

IC50: 30 nM
SMILES: Cc1cc(=O)c2c(OCCC(N)=O)ncc(Cl)c2n1-c1c(Cl)cc(OCCO)cc1Cl [US12084442, Example 18]
